Patent US20130309736A1, “COMPOSITIONS AND METHODS FOR MALATE AND FUMARATE PRODUCTION” (CARGILL, INCORPORATED, priority 2011, published 2013)

How the values were obtained:
Format in all cases: cell-based
[1] = system: Issatchenkia orientalis ATCC 24210; assay: Glucose consumption rate in YPD shake flasks (second secondary screen); details: 50 g/L lactic acid, pH 2.85, scale 0 to 1
Experimental: (§1) For the second secondary screen, glucose consumption was measured in YPD media containing 0 g/L malate at pH 3.0 or 200 g/L malate at pH 2.85. Shake flasks were inoculated with biomass harvested from seed flasks grown overnight to an OD600 of 6 to 10. 250 mL baffled glycolytic assay flasks (50 mL working volume) were inoculated to an OD600 of 0.1 and grown at 250 RPM and 30° C. Samples were taken throughout the time course of the assay and analyzed for glucose consumption using a 2700 Biochemistry Analyzer (Yellow Springs Instruments, YSI). The resulting data was plotted and glucose consumption rates were established.
(§2) The same procedures were utilized to screen, rate, and score the original 91 wild-type yeast strains from the primary screen with media containing 0, 30, 45, and 60 g/L lactic acid at pH 3.0 (˜80% free acid). Due to difficulties in properly scoring some very weak growth that occasionally occurred at 60 g/L, 20 strains were re-tested in the primary screen. Of these 20 strains, eight were eliminated due to very slow growth relative to the rest of the test group. The remaining 12 strains were advanced into secondary screening. The secondary screen for lactic acid was the same as that described above for malate, except for changes in concentrations and pH values. Growth rates were measured at 0 g/L lactic acid, pH 3.0 and 50 g/L lactic acid, pH 2.85, and glucose consumption rates were measured in the presence of 50 g/L lactic acid, pH 2.85. Normalized values and weighted and summed scores were calculated for each strain as described above for malate.

[2] = system: Kodamaea ohmeri ATCC 20282; assay: as above; details: 50 g/L lactic acid, pH 2.85, scale 0 to 1
Experimental: as §1, §2

[3] = system: Candida lambica ATCC 38617; assay: as above; details: 50 g/L lactic acid, pH 2.85, scale 0 to 1
Experimental: as §1, §2

[4] = system: Candida milleri ATCC 60592; assay: as above; details: 50 g/L lactic acid, pH 2.85, scale 0 to 1
Experimental: as §1, §2

[5] = system: Candida sorbosivorans ATCC 38619; assay: as above; details: Candida sorosivorans; 50 g/L lactic acid, pH 2.85; scale 0 to 1
Experimental: as §1, §2

[6] = system: Saccharomyces bulderi ATCC MYA-404; assay: as above; details: 50 g/L lactic acid, pH 2.85, scale 0 to 1
Experimental: as §1, §2

Candida geochares [7] = assay: as above; details: 50 g/L lactic acid, pH 2.85, scale 0 to 1
Experimental: as §1, §2

[8] = system: Issatchenkia orientalis ATCC PTA-6658; assay: as above; details: 50 g/L lactic acid, pH 2.85, scale 0 to 1
Experimental: as §1, §2

[9] = system: Saccharomyces bayanus ATCC 90739; assay: as above; details: 50 g/L lactic acid, pH 2.85, scale 0 to 1
Experimental: as §1, §2

Saccharomyces javensis [10] = assay: as above; details: 50 g/L lactic acid, pH 2.85, scale 0 to 1
Experimental: as §1, §2

[11] = system: Issatchenkia orientalis CD1822; assay: as above; details: 50 g/L lactic acid, pH 2.85, scale 0 to 1
Experimental: as §1, §2

[12] = system: Saccharomyces bulderi ATCC MYA-402; assay: as above; details: 50 g/L lactic acid, pH 2.85, scale 0 to 1
Experimental: as §1, §2

[13] = system: Candida zemplinina PYCC 04-501; assay: as above; details: 50 g/L lactic acid, pH 2.85, scale 0 to 1
Experimental: as §1, §2

[14] = system: Issatchenkia orientalis ATCC 24210; assay: Growth rate in YPD shake flasks (first secondary screen)
Experimental: (§3) For the first secondary screen, growth rates were measured in YPD media containing 0 g/L malate at pH 3.0 or 200 g/L malate at pH 2.85. Shake flasks were inoculated with biomass harvested from seed flasks grown overnight to an OD600 of 6 to 10. 250 mL baffled growth rate flasks (50 mL working volume) were inoculated to an OD600 of 0.1 and grown at 250 rpm and 30° C. Samples were taken throughout the time course of the assay and analyzed for biomass growth via OD600. The resulting OD600 data was plotted and growth rates were established.
as §2

[15] = system: Kodamaea ohmeri ATCC 20282; assay: as above
Experimental: as §3, §2

[16] = system: Candida lambica ATCC 38617; assay: as above
Experimental: as §3, §2

[17] = system: Candida milleri ATCC 60592; assay: as above
Experimental: as §3, §2

[18] = system: Candida sorbosivorans ATCC 38619; assay: as above; details: Candida sorosivorans, scale 0 to 1
Experimental: as §3, §2

[19] = system: Saccharomyces bulderi ATCC MYA-404; assay: as above
Experimental: as §3, §2

Candida geochares [20] = assay: as above
Experimental: as §3, §2

[21] = system: Issatchenkia orientalis ATCC PTA-6658; assay: as above
Experimental: as §3, §2

[22] = system: Saccharomyces bayanus ATCC 90739; assay: as above
Experimental: as §3, §2

Saccharomyces javensis [23] = assay: as above
Experimental: as §3, §2

[24] = system: Issatchenkia orientalis CD1822; assay: as above
Experimental: as §3, §2

[25] = system: Saccharomyces bulderi ATCC MYA-402; assay: as above
Experimental: as §3, §2

[26] = system: Candida zemplinina PYCC 04-501; assay: as above
Experimental: as §3, §2

Q: Which results are given for `CC(O)C(=O)O` (stereo not drawn) [lactic acid]?
A: Normalized grade: Glycolic rate [1]: 1; Normalized grade: Glycolic rate [2]: 0.76; Normalized grade: Glycolic rate [3]: 1; Normalized grade: Glycolic rate [4]: 0.92; Normalized grade: Glycolic rate [5]: 0.59; Normalized grade: Glycolic rate [6]: 1; Normalized grade: Glycolic rate (Candida geochares [7]): 0.69; Normalized grade: Glycolic rate [8]: 1; Normalized grade: Glycolic rate [9]: 0.96; Normalized grade: Glycolic rate (Saccharomyces javensis [10]): 0; Normalized grade: Glycolic rate [11]: 1; Normalized grade: Glycolic rate [12]: 1; Normalized grade: Glycolic rate [13]: 1; Normalized grade: Growth rate slope ([14]; lactic acid, scale 0 to 1): 0.73; Normalized grade: Growth rate 50 g/L lactic acid ([14]; pH 2.85, scale 0 to 1): 0.89; Normalized grade: Growth rate slope ([15]; lactic acid, scale 0 to 1): 0; Normalized grade: Growth rate 50 g/L lactic acid ([15]; pH 2.85, scale 0 to 1): 0.42; Normalized grade: Growth rate slope ([16]; lactic acid, scale 0 to 1): 1; Normalized grade: Growth rate 50 g/L lactic acid ([16]; pH 2.85, scale 0 to 1): 0.92; Normalized grade: Growth rate slope ([17]; lactic acid, scale 0 to 1): 0.64; Normalized grade: Growth rate 50 g/L lactic acid ([17]; pH 2.85, scale 0 to 1): 0; Normalized grade: Growth rate slope ([18]; lactic acid): 0.95; Normalized grade: Growth rate 50 g/L lactic acid ([18]; pH 2.85): 0.28; Normalized grade: Growth rate slope ([19]; lactic acid, scale 0 to 1): 0.45; Normalized grade: Growth rate 50 g/L lactic acid ([19]; pH 2.85, scale 0 to 1): 0.47; Normalized grade: Growth rate slope (Candida geochares [20]; lactic acid, scale 0 to 1): 0.27; Normalized grade: Growth rate 50 g/L lactic acid (Candida geochares [20]; pH 2.85, scale 0 to 1): 0.17; Normalized grade: Growth rate slope ([21]; lactic acid, scale 0 to 1): 0.95; Normalized grade: Growth rate 50 g/L lactic acid ([21]; pH 2.85, scale 0 to 1): 0.94; Normalized grade: Growth rate slope ([22]; lactic acid, scale 0 to 1): 0.91; Normalized grade: Growth rate 50 g/L lactic acid ([22]; pH 2.85, scale 0 to 1): 0.08; Normalized grade: Growth rate slope (Saccharomyces javensis [23]; lactic acid, scale 0 to 1): 0.68; Normalized grade: Growth rate 50 g/L lactic acid (Saccharomyces javensis [23]; pH 2.85, scale 0 to 1): 0.11; Normalized grade: Growth rate slope ([24]; lactic acid, scale 0 to 1): 0.86; Normalized grade: Growth rate 50 g/L lactic acid ([24]; pH 2.85, scale 0 to 1): 1.00; Normalized grade: Growth rate slope ([25]; lactic acid, scale 0 to 1): 0.23; Normalized grade: Growth rate 50 g/L lactic acid ([25]; pH 2.85, scale 0 to 1): 0.5; Normalized grade: Growth rate slope ([26]; lactic acid, scale 0 to 1): 0.95; Normalized grade: Growth rate 50 g/L lactic acid ([26]; pH 2.85, scale 0 to 1): 0.22
